Reference: EP4230620A1, “SUBSTITUTED N-AMINO-N-BENZOIC ACID URACILS, THEIR SALTS AND USE OF SAID COMPOUNDS AS HERBICIDAL AGENTS” (Bayer Aktiengesellschaft, priority 2022, dated 2023)

Key:
Format in all cases: in vivo
[1] = test system: Setaria viridis; test: Post-emergence herbicidal action in greenhouse against SETVI; conditions: visual rating after ca. 3 weeks
Excerpt: (§1) Biologische Beispiele: • Die folgenden Abkürzungen werden für die in den folgenden Tabellen aufgeführten Kultur- und Schadpflanzen verwendet: ABUTH: Abutilon theophrasti ALOMY: Alopecurus myosuroides AMARE: Amaranthus retroflexus BRSNS: Brassica napus DIGSA: Digitaria sanguinalis ECHCG: Echinochloa crus-galli GLXMA: Glycine max KCHSC: Kochia scoparia LOLRI: Lolium rigidum MATIN: Matricaria inodora ORYZA: Oryza sativa PHPBU: Pharbitis purpurea POLCO: Polygonum convolvulus SETVI: Setaria viridis VERPE: Veronica persica VIOTR: Viola tricolor TRZAS: Triticum aestivum ZEAMX: Zea mays • A. Herbizide Wirkung im Nachauflauf
(§2) Samen von mono- bzw. dikotylen Unkrautpflanzen wurden in Kunststoff- oder Holzfasertöpfen in sandigem Lehmboden ausgelegt, mit Erde abgedeckt und im Gewächshaus unter kontrollierten Wachstumsbedingungen angezogen. 2 bis 3 Wochen nach der Aussaat wurden die Versuchspflanzen im Einblattstadium behandelt. Die in Form von benetzbaren Pulvern (WP) oder als Emulsionskonzentrate (EC) formulierten erfindungsgemäßen Verbindungen wurden dann als wässrige Suspension bzw. Emulsion unter Zusatz von 0,5% Additiv mit einer Wasseraufwandmenge von umgerechnet 600 l/ha auf die grünen Pflanzenteile gesprüht. Nach ca. 3 Wochen Standzeit der Versuchspflanzen im Gewächshaus, unter optimalen Wachstumsbedingungen, wurde die Wirkung der Präparate visuell im Vergleich zu unbehandelten Kontrollen bonitiert. Beispielsweise bedeutet 100% Wirkung = Pflanzen sind abgestorben, 0% Wirkung = wie Kontrollpflanzen.
(§3) In den nachstehenden Tabellen A1 bis A11 sind die Wirkungen ausgewählter Verbindungen der allgemeinen Formel (I) gemäß der Tabelle 1 auf verschiedene Schadpflanzen und einer Aufwandmenge entsprechend 20 g/ha und niedriger, die gemäß zuvor genannter Versuchsvorschrift erhalten wurden, dargestellt. Tabelle A1a: Nachauflaufwirkung bei 1,25 g/ha gegen ABUTH in %

[2] = test system: Polygonum convolvulus; test: Post-emergence herbicidal action in greenhouse against POLCO; conditions: visual rating after ca. 3 weeks
Excerpt: as §1, §2, §3

[3] = test system: Oryza sativa; test: Post-emergence action on crop plants in greenhouse, ORYZA; conditions: crop plant, visual rating after ca. 3 weeks, 100% = plants dead, 0% = like control plants
Excerpt: as §1
as §2, with “Kulturpflanzen” for “Unkrautpflanzen”
as §3, with “B1” for “A1”, “B4” for “A11”, “Kulturpflanzen” for “Schadpflanzen”, “B1a:” for “A1a:”, “ZEAMX” for “ABUTH”

[4] = test system: Viola tricolor; test: Post-emergence herbicidal action in greenhouse against VIOTR; conditions: visual rating after ca. 3 weeks
Excerpt: as §1, §2, §3

[5] = test system: Triticum aestivum; test: Post-emergence action on crop plants in greenhouse, TRZAS; conditions: crop plant, visual rating after ca. 3 weeks, 100% = plants dead, 0% = like control plants
Excerpt: as §1
as §2, with “Kulturpflanzen” for “Unkrautpflanzen”
as §3, with “B1” for “A1”, “B4” for “A11”, “Kulturpflanzen” for “Schadpflanzen”, “B1a:” for “A1a:”, “ZEAMX” for “ABUTH”

[6] = test system: Digitaria sanguinalis; test: Post-emergence herbicidal action in greenhouse against DIGSA; conditions: visual rating after ca. 3 weeks
Excerpt: as §1, §2, §3

[7] = test system: Veronica persica; test: Post-emergence herbicidal action in greenhouse against VERPE; conditions: visual rating after ca. 3 weeks
Excerpt: as §1, §2, §3

[8] = test system: Amaranthus retroflexus; test: Post-emergence herbicidal action in greenhouse against AMARE; conditions: post-emergence spray, 600 l/ha water, visual rating after ca. 3 weeks vs untreated controls, 100% = plants dead, 0% = like control plants
Excerpt: as §1, §2, §3

[9] = test system: Matricaria inodora; test: Post-emergence herbicidal action in greenhouse against MATIN; conditions: visual rating after ca. 3 weeks
Excerpt: as §1, §2, §3

[10] = test system: Pharbitis purpurea; test: Post-emergence herbicidal action in greenhouse against PHBPU; conditions: visual rating after ca. 3 weeks
Excerpt: as §1, §2, §3

[11] = test system: Abutilon theophrasti; test: Post-emergence herbicidal action in greenhouse against ABUTH; conditions: post-emergence spray, 600 l/ha water, visual rating after ca. 3 weeks vs untreated controls, 100% = plants dead, 0% = like control plants
Excerpt: as §1, §2, §3

[12] = test system: Zea mays; test: Post-emergence action on crop plants in greenhouse, ZEAMX; conditions: crop plant, 100% = plants dead, 0% = like control plants
Excerpt: as §1
as §2, with “Kulturpflanzen” for “Unkrautpflanzen”
as §3, with “B1” for “A1”, “B4” for “A11”, “Kulturpflanzen” for “Schadpflanzen”, “B1a:” for “A1a:”, “ZEAMX” for “ABUTH”

[13] = test system: Lolium rigidum; test: Post-emergence herbicidal action in greenhouse against LOLRI; conditions: 20 g/ha; post-emergence spray, 600 l/ha water; visual rating after ca. 3 weeks vs untreated controls; 100% = plants dead, 0% = like control plants
Excerpt: as §1, §2, §3

[14] = test system: Alopecurus myosuroides; test: Post-emergence herbicidal action in greenhouse against ALOMY; conditions: 20 g/ha; post-emergence spray, 600 l/ha water; visual rating after ca. 3 weeks vs untreated controls; 100% = plants dead, 0% = like control plants
Excerpt: as §1, §2, §3

[15] = 1,25 g/ha, post-emergence, visual rating after ca. 3 weeks

| SMILES | Nachauflaufwirkung gegen SETVI ([1]; 20 g/ha) | Nachauflaufwirkung gegen POLCO ([2]; 20 g/ha) | Nachauflaufwirkung gegen ORYZA ([3]; 1,25 g/ha) | Nachauflaufwirkung gegen VIOTR ([4]; 1,25 g/ha) | Nachauflaufwirkung gegen VIOTR ([4]; 5 g/ha) | Nachauflaufwirkung gegen VIOTR ([4]; 20 g/ha) | Nachauflaufwirkung gegen TRZAS ([5]; 1,25 g/ha) | Nachauflaufwirkung gegen TRZAS ([5]; 5 g/ha) | Nachauflaufwirkung gegen DIGSA ([6]; 20 g/ha) | Nachauflaufwirkung gegen VERPE ([7]; 5 g/ha) | Nachauflaufwirkung gegen VERPE ([7]; 20 g/ha) | Nachauflaufwirkung gegen AMARE ([8]; 1,25 g/ha) | Nachauflaufwirkung gegen AMARE ([8]; 5 g/ha) | Nachauflaufwirkung gegen AMARE ([8]; 20 g/ha) | Nachauflaufwirkung gegen MATIN ([9]; 20 g/ha) | Nachauflaufwirkung gegen PHBPU ([10]; 1,25 g/ha) | Nachauflaufwirkung gegen PHBPU ([10]; 5 g/ha) | Nachauflaufwirkung gegen PHBPU ([10]; 20 g/ha) | Nachauflaufwirkung gegen ABUTH ([11]; 1,25 g/ha) | Nachauflaufwirkung gegen ABUTH ([11]; 5 g/ha) | other results |
| --- | --- | --- | --- | --- | --- | --- | --- | --- | --- | --- | --- | --- | --- | --- | --- | --- | --- | --- | --- | --- | --- |
| CC(C)(OC(=O)c1cc(-n2c(=O)cc(C(F)(F)F)n(N)c2=O)ccc1Cl)C(=O)OCc1ccccn1 [I.2-286] | 100% | 100% | 0% | 100% | 100% | 100% | 0% | 0% | 100% | 100% | 100% | 80% | 100% | 100% | 100% | 100% | 100% | 100% | 80% | 100% | Nachauflaufwirkung gegen SETVI ([1]; 1,25 g/ha): 90%; Nachauflaufwirkung gegen SETVI ([1]; 5 g/ha): 100%; Nachauflaufwirkung gegen POLCO ([2]; 5 g/ha): 100%; Nachauflaufwirkung gegen ORYZA ([3]; 5 g/ha): 0%; Nachauflaufwirkung gegen TRZAS ([5]; 20 g/ha): 10%; Nachauflaufwirkung gegen DIGSA ([6]; 5 g/ha): 80%; Nachauflaufwirkung gegen ABUTH ([11]; 20 g/ha): 100%; Nachauflaufwirkung gegen ZEAMX [12, 15]: 20% |
| CC(C)(OC(=O)c1cc(-n2c(=O)cc(C(F)(F)F)n(N)c2=O)c(F)cc1Cl)C(=O)OCC#N [I.1-176, 1-(Cyanmethoxy)-2-methyl-1-oxopropan-2-yl-5-[3-amino-2,6-dioxo-4-(trifluormethyl)-3,6-dihydropyrimidin-1(2H)-yl]-2-chlor-4-fluorbenzoat] | 100% | 100% | 20% | 90% | 100% | 100% | 0% | 20% | 100% | 100% | 100% | 100% | 100% | 100% | 100% | 90% | 100% | 100% | 100% | 100% | Nachauflaufwirkung gegen SETVI ([1]; 1,25 g/ha): 100%; Nachauflaufwirkung gegen SETVI ([1]; 5 g/ha): 100%; Nachauflaufwirkung gegen POLCO ([2]; 5 g/ha): 100%; Nachauflaufwirkung gegen DIGSA ([6]; 5 g/ha): 100%; Nachauflaufwirkung gegen VERPE ([7]; 1,25 g/ha): 80%; Nachauflaufwirkung gegen MATIN ([9]; 5 g/ha): 100%; Nachauflaufwirkung gegen LOLRI [13]: 80%; Nachauflaufwirkung gegen ABUTH ([11]; 20 g/ha): 100%; Nachauflaufwirkung gegen ALOMY [14]: 100% |
| CC(C)=NOC(=O)C(C)(C)OC(=O)c1cc(-n2c(=O)cc(C(F)(F)F)n(N)c2=O)c(F)cc1Cl [I.1-491] | 100% | 100% | 0% | 80% | 100% | 100% | 0% | 0% | 100% | 100% | 100% | 100% | 100% | 100% | 100% | 100% | 100% | 100% | 100% | 100% | Nachauflaufwirkung gegen SETVI ([1]; 1,25 g/ha): 100%; Nachauflaufwirkung gegen SETVI ([1]; 5 g/ha): 100%; Nachauflaufwirkung gegen DIGSA ([6]; 5 g/ha): 100%; Nachauflaufwirkung gegen MATIN ([9]; 5 g/ha): 100%; Nachauflaufwirkung gegen LOLRI [13]: 80%; Nachauflaufwirkung gegen ABUTH ([11]; 20 g/ha): 100%; Nachauflaufwirkung gegen ZEAMX [12, 15]: 20%; Nachauflaufwirkung gegen ALOMY [14]: 100% |
| C=CCOC(=O)C(C)(C)OC(=O)c1cc(-n2c(=O)cc(C(F)(F)F)n(N)c2=O)ccc1Cl [I.2-471] | 100% | 100% | 0% | 100% | 100% | 100% | 0% | 0% | 100% | 100% | 100% | 100% | 100% | 100% | 100% | 100% | 100% | 100% | 90% | 100% | Nachauflaufwirkung gegen SETVI ([1]; 1,25 g/ha): 100%; Nachauflaufwirkung gegen SETVI ([1]; 5 g/ha): 100%; Nachauflaufwirkung gegen TRZAS ([5]; 20 g/ha): 10%; Nachauflaufwirkung gegen DIGSA ([6]; 5 g/ha): 100%; Nachauflaufwirkung gegen VERPE ([7]; 1,25 g/ha): 100%; Nachauflaufwirkung gegen MATIN ([9]; 5 g/ha): 90%; Nachauflaufwirkung gegen ABUTH ([11]; 20 g/ha): 100%; Nachauflaufwirkung gegen ZEAMX [12, 15]: 20%; Nachauflaufwirkung gegen ZEAMX ([12]; 5 g/ha, post-emergence spray, 600 l/ha water, visual rating after ca. 3 weeks vs untreated controls): 20%; Nachauflaufwirkung gegen ALOMY [14]: 80% |
| CC(C)(OC(=O)c1cc(-n2c(=O)cc(C(F)(F)F)n(N)c2=O)ccc1Cl)C(=O)OCC#N [I.2-176, 1-(Cyanmethoxy)-2-methyl-1-oxopropan-2-yl-5-[3-amino-2,6-dioxo-4-(trifluormethyl)-3,6-dihydropyrimidin-1(2H)-yl]-2-chlorbenzoat] | 100% | 100% | 0% | 80% | 100% | 100% | 0% | 0% | 100% | 90% | 100% | 100% | 100% | 100% | 80% | 90% | 100% | 100% | 80% | 100% | Nachauflaufwirkung gegen ORYZA ([3]; 5 g/ha): 20%; Nachauflaufwirkung gegen ABUTH ([11]; 20 g/ha): 100%; Nachauflaufwirkung gegen ZEAMX [12, 15]: 20% |
